Measured values reported in ChEMBL document CHEMBL1201861, “Genomics of Drug Sensitity in Cancer screening data, Wellcome Trust Sanger Institute”.

Key:
Assay in all cases: cells
[1] = tested on: P12-Ichikawa; format: functional, cell-based; conditions: Homo sapiens
[2] = tested on: A-431; format: functional, cell-based, Homo sapiens; conditions: Homo sapiens, A-431;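 also: growth inhibition of A-431 cells, determined with a cell viability read-out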
Description: SANGER: Inhibition of human A431 cell growth in a cell viability assay.

[3] = tested on: TE-9; format: functional, cell-based, Homo sapiens; conditions: Homo sapiens, TE-9;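 also: cell growth inhibition, measured with a cell viability readout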
Description: SANGER: Inhibition of human TE-9 cell growth in a cell viability assay.

[4] = tested on: HPAF-II; format: functional, cell-based, Homo sapiens; conditions: Homo sapiens, HPAF-II;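 also: growth inhibition of HPAF-II cells, read out with a cell viability assay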
Description: SANGER: Inhibition of human HPAF-II cell growth in a cell viability assay.

[5] = tested on: HEL; format: functional, cell-based, Homo sapiens; conditions: Homo sapiens, HEL;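 also: growth inhibition of HEL cells, read out with a cell viability assay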
Description: SANGER: Inhibition of human HEL cell growth in a cell viability assay.

[6] = tested on: MDA-MB-415; format: functional, cell-based; conditions: Homo sapiens
[7] = tested on: NCI-H2087; format: functional, cell-based, Homo sapiens; conditions: Homo sapiens, NCI-H2087;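 also: growth inhibition determined with a cell viability readout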
Description: SANGER: Inhibition of human NCI-H2087 cell growth in a cell viability assay.

[8] = tested on: PSN1; format: functional, cell-based, Homo sapiens; conditions: Homo sapiens, PSN1;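 also: suppression of growth of human PSN1 cells, read out by a cell viability assay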
Description: SANGER: Inhibition of human PSN1 cell growth in a cell viability assay.

[9] = tested on: CAL-85-1; format: functional, cell-based; conditions: Homo sapiens;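 also: growth inhibition of human CAL-85-1 cells, read out with a cell viability assay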
Description: SANGER: Inhibition of human CAL-85-1 cell growth in a cell viability assay.

[10] = tested on: NCI-H650; format: functional, cell-based, Homo sapiens; conditions: Homo sapiens, NCI-H650;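 also: growth inhibition of NCI-H650 cells, read out by a viability assay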
Description: SANGER: Inhibition of human NCI-H650 cell growth in a cell viability assay.

[11] = tested on: AM-38; format: functional, cell-based, Homo sapiens; conditions: Homo sapiens, AM-38;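 also: growth inhibition of AM-38 cells of human origin, read out by a cell viability assay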
Description: SANGER: Inhibition of human AM-38 cell growth in a cell viability assay.

[12] = tested on: MPP-89; format: functional, cell-based, Homo sapiens; conditions: Homo sapiens, MPP-89;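 also: growth inhibition of human MPP-89 cells, read out with a cell viability assay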
Description: SANGER: Inhibition of human MPP-89 cell growth in a cell viability assay.

[13] = tested on: KU-19-19; format: functional, cell-based, Homo sapiens; conditions: Homo sapiens, KU-19-19
Description: SANGER: Inhibition of human KU-19-19 cell growth in a cell viability assay.

[14] = tested on: HEC-1; format: functional, cell-based, Homo sapiens; conditions: Homo sapiens, HEC-1;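 also: growth inhibition of the cell line, read out with a cell viability assay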
Description: SANGER: Inhibition of human HEC-1 cell growth in a cell viability assay.

[15] = tested on: PA-1; format: functional, cell-based, Homo sapiens; conditions: Homo sapiens, PA-1;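 also: IC50 for suppression of PA-1 cell proliferation, determined with a cell viability read-out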
Description: SANGER: Inhibition of human PA-1 cell growth in a cell viability assay.

[16] = tested on: SW837; format: functional, cell-based, Homo sapiens; conditions: Homo sapiens, SW837;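 also: growth inhibition of SW837 cells, determined with a cell viability assay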
Description: SANGER: Inhibition of human SW837 cell growth in a cell viability assay.

[17] = tested on: GT3TKB; format: functional, cell-based, Homo sapiens; conditions: Homo sapiens, GT3TKB;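 also: growth inhibition of the cell line, read out with a cell viability assay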
Description: SANGER: Inhibition of human GT3TKB cell growth in a cell viability assay.

[18] = tested on: A3-KAW; format: functional, cell-based; conditions: Homo sapiens;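 also: growth inhibition of human A3-KAW cells, read out with a cell viability assay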
Description: SANGER: Inhibition of human A3-KAW cell growth in a cell viability assay.

[19] = tested on: NCI-H2228; format: functional, cell-based, Homo sapiens; conditions: Homo sapiens, NCI-H2228;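 also: growth inhibition of human NCI-H2228 cells, read out by a cell viability assay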
Description: SANGER: Inhibition of human NCI-H2228 cell growth in a cell viability assay.

[20] = tested on: ONS-76; format: functional, cell-based, Homo sapiens; conditions: Homo sapiens, ONS-76;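 also: growth inhibition of human ONS-76 cells, read out with a cell viability assay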
Description: SANGER: Inhibition of human ONS-76 cell growth in a cell viability assay.

[21] = tested on: HT-3; format: functional, cell-based, Homo sapiens; conditions: Homo sapiens, HT-3;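 also: growth inhibition measured with a cell viability readout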
Description: SANGER: Inhibition of human HT-3 cell growth in a cell viability assay.

[22] = tested on: NEC8; format: functional, cell-based, Homo sapiens; conditions: Homo sapiens, NEC8;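 also: growth inhibition of human NEC8 cells, read out by a cell viability assay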
Description: SANGER: Inhibition of human NEC8 cell growth in a cell viability assay.

[23] = tested on: Detroit 562; format: functional, cell-based, Homo sapiens; conditions: Homo sapiens, Detroit 562;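 also: growth inhibition of human Detroit 562 cells, read out by a cell viability assay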
Description: SANGER: Inhibition of human Detroit562 cell growth in a cell viability assay.

[24] = tested on: EW-13; format: functional, cell-based; conditions: Homo sapiens;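 also: growth inhibition of EW-13 cells, read out with a cell viability assay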
Description: SANGER: Inhibition of human EW-13 cell growth in a cell viability assay.

[25] = tested on: A-375; format: functional, cell-based, Homo sapiens; conditions: Homo sapiens, A-375;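 also: growth inhibition of A375 cells, read out with a cell viability assay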
Description: SANGER: Inhibition of human A375 cell growth in a cell viability assay.

[26] = tested on: NCI-H747; format: functional, cell-based; conditions: Homo sapiens;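 also: growth inhibition of human NCI-H747 cells, read out by a cell viability assay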
Description: SANGER: Inhibition of human NCI-H747 cell growth in a cell viability assay.

[27] = tested on: SF-295; format: functional, cell-based, Homo sapiens; conditions: Homo sapiens, SF-295; read-out: IC50;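 also: growth inhibition of SF-295 cells, read out with a cell viability assay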
Description: SANGER: Inhibition of human SF295 cell growth in a cell viability assay.

[28] = tested on: Ca9-22; format: functional, cell-based, Homo sapiens; conditions: Homo sapiens, Ca9-22;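 also: growth inhibition of Ca9-22 cells, read out with a cell viability assay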
Description: SANGER: Inhibition of human Ca9-22 cell growth in a cell viability assay.

[29] = tested on: TE-12; format: functional, cell-based; conditions: Homo sapiens;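 also: growth inhibition of TE-12 cells, read out by a cell viability assay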
Description: SANGER: Inhibition of human TE-12 cell growth in a cell viability assay.

[30] = tested on: LAMA-84; format: functional, cell-based; conditions: Homo sapiens;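 also: growth inhibition of LAMA-84 cells, read out with a cell viability assay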
Description: SANGER: Inhibition of human LAMA-84 cell growth in a cell viability assay.

[31] = tested on: RERF-LC-MS; format: functional, cell-based, Homo sapiens; conditions: Homo sapiens, RERF-LC-MS;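 also: growth inhibition of human RERF-LC-MS cells, read out by a cell viability assay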
Description: SANGER: Inhibition of human RERF-LC-MS cell growth in a cell viability assay.

[32] = tested on: PC-3; format: functional, cell-based, Homo sapiens; conditions: Homo sapiens, PC-3;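 also: cell viability assay measuring growth inhibition of PC-3 cells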
Description: SANGER: Inhibition of human PC-3 cell growth in a cell viability assay.

[33] = tested on: COLO-824; format: functional, cell-based, Homo sapiens; conditions: Homo sapiens, COLO-824
Description: SANGER: Inhibition of human COLO-824 cell growth in a cell viability assay.

[34] = tested on: HT; format: functional, cell-based; conditions: Homo sapiens
Description: SANGER: Inhibition of human HT cell growth in a cell viability assay.

[35] = tested on: NCI-H2126; format: functional, cell-based, Homo sapiens; conditions: Homo sapiens, NCI-H2126;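 also: growth inhibition of the cancer cell line, determined with a cell viability readout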
Description: SANGER: Inhibition of human NCI-H2126 cell growth in a cell viability assay.

[36] = tested on: FaDu; format: functional, cell-based, Homo sapiens; conditions: Homo sapiens, FaDu;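 also: cell viability readout of growth inhibition in FaDu cells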
Description: SANGER: Inhibition of human FADU cell growth in a cell viability assay.

[37] = tested on: CW-2; format: functional, cell-based, Homo sapiens; conditions: Homo sapiens, CW-2;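 also: growth inhibition of CW-2 cells, read out by a cell viability assay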
Description: SANGER: Inhibition of human CW-2 cell growth in a cell viability assay.

[38] = tested on: LCLC-97TM1; format: functional, cell-based, Homo sapiens; conditions: Homo sapiens, LCLC-97TM1;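 also: cell viability assay measuring growth inhibition of human LCLC-97TM1 cells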
Description: SANGER: Inhibition of human LCLC-97TM1 cell growth in a cell viability assay.

[39] = tested on: COLO-678; format: functional, cell-based, Homo sapiens; conditions: Homo sapiens, COLO-678
Description: SANGER: Inhibition of human COLO-678 cell growth in a cell viability assay.

[40] = tested on: NCI-H720; format: functional, cell-based; conditions: Homo sapiens;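 also: growth inhibition of human NCI-H720 cells determined by a cell viability assay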
Description: SANGER: Inhibition of human NCI-H720 cell growth in a cell viability assay.

[41] = tested on: LB2518-MEL; format: functional, cell-based, Homo sapiens; conditions: Homo sapiens, LB2518-MEL;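 also: growth inhibition of human LB2518-MEL cells, measured with a cell viability assay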
Description: SANGER: Inhibition of human LB2518-MEL cell growth in a cell viability assay.

[42] = tested on: HH; format: functional, cell-based; conditions: Homo sapiens
Description: SANGER: Inhibition of human HH cell growth in a cell viability assay.

[43] = tested on: EM-2; format: functional, cell-based; conditions: Homo sapiens;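 also: growth inhibition of EM-2 cells, read out with a cell viability assay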
Description: SANGER: Inhibition of human EM-2 cell growth in a cell viability assay.

[44] = tested on: SK-HEP1; format: functional, cell-based, Homo sapiens, SK-HEP-1; conditions: Homo sapiens, SK-HEP1;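 also: cell viability readout used to quantify reduction in proliferation of human SK-HEP-1 cells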
Description: SANGER: Inhibition of human SK-HEP-1 cell growth in a cell viability assay.

[45] = tested on: NOS-1; format: functional, cell-based, Homo sapiens; conditions: Homo sapiens, NOS-1;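 also: growth inhibition of the human NOS-1 cell line, read out with a cell viability assay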
Description: SANGER: Inhibition of human NOS-1 cell growth in a cell viability assay.

[46] = tested on: LU-139; format: functional, cell-based; conditions: Homo sapiens
Description: SANGER: Inhibition of human LU-139 cell growth in a cell viability assay.

[47] = tested on: KYSE-520 cell line; format: functional, cell-based, Homo sapiens; conditions: Homo sapiens, KYSE-520;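 also: growth inhibition of human KYSE-520 cells, read out with a viability assay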
Description: SANGER: Inhibition of human KYSE-520 cell growth in a cell viability assay.

[48] = tested on: Capan-2; format: functional, cell-based, Homo sapiens; conditions: Homo sapiens, Capan-2;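 also: Capan-2 cell growth inhibition, read out with a viability assay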
Description: SANGER: Inhibition of human Capan-2 cell growth in a cell viability assay.

[49] = tested on: AGS; format: functional, cell-based, Homo sapiens; conditions: Homo sapiens, AGS;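 also: growth inhibition of AGS cells, determined with a cell viability assay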
Description: SANGER: Inhibition of human AGS cell growth in a cell viability assay.

[50] = tested on: J82; format: functional, cell-based; conditions: Homo sapiens;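 also: growth inhibition of J82 cells, read out with a cell viability assay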
Description: SANGER: Inhibition of human J82 cell growth in a cell viability assay.

[51] = tested on: LS-411N; format: functional, cell-based, Homo sapiens; conditions: Homo sapiens, LS-411N
[52] = tested on: LS-513; format: functional, cell-based, Homo sapiens; conditions: Homo sapiens, LS-513
Description: SANGER: Inhibition of human LS-513 cell growth in a cell viability assay.

[53] = tested on: Ca-Ski; format: functional, cell-based; conditions: Homo sapiens;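 also: cell viability assay measuring inhibition of Ca-Ski cell growth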
Description: SANGER: Inhibition of human Ca-Ski cell growth in a cell viability assay.

CCOc1nc(NC(=O)Cc2cc(OC)ccc2OC)cc(N)c1C#N
IC50 [1]: > 10 µM
IC50 [2]: > 10 µM
IC50 [3]: > 10 µM
IC50 [4]: > 10 µM
IC50 [5]: > 10 µM
IC50 [6]: > 10 µM
IC50 [7]: > 10 µM
IC50 [8]: > 10 µM
IC50 [9]: > 10 µM
IC50 [10]: > 10 µM
IC50 [11]: > 10 µM
IC50 [12]: > 10 µM
IC50 [13]: > 10 µM
IC50 [14]: > 10 µM
IC50 [15]: > 10 µM
IC50 [16]: > 10 µM
IC50 [17]: > 10 µM
IC50 [18]: > 10 µM
IC50 [19]: > 10 µM
IC50 [20]: > 10 µM
IC50 [21]: > 10 µM
IC50 [22]: > 10 µM
IC50 [23]: > 10 µM
IC50 [24]: > 10 µM
IC50 [25]: > 10 µM
IC50 [26]: > 10 µM
IC50 [27]: > 10 µM
IC50 [28]: > 10 µM
IC50 [29]: > 10 µM
IC50 [30]: > 10 µM
IC50 [31]: > 10 µM
IC50 [32]: > 10 µM
IC50 [33]: > 10 µM
IC50 [34]: > 10 µM
IC50 [35]: > 10 µM
IC50 [36]: > 10 µM
IC50 [37]: > 10 µM
IC50 [38]: > 10 µM
IC50 [39]: > 10 µM
IC50 [40]: > 10 µM
IC50 [41]: > 10 µM
IC50 [42]: > 10 µM
IC50 [43]: > 10 µM
IC50 [44]: > 10 µM
IC50 [45]: > 10 µM
IC50 [46]: > 10 µM
IC50 [47]: > 10 µM
IC50 [48]: > 10 µM
IC50 [49]: > 10 µM
IC50 [50]: > 10 µM
IC50 [51]: > 10 µM
IC50 [52]: > 10 µM
IC50 [53]: > 10 µM

CC(=O)O[C@@H]1[C@@H](OC(C)=O)[C@@H](O)[C@H](Oc2c(-c3ccc(O)cc3)oc3cc(O)cc(O)c3c2=O)O[C@H]1C
IC50 [1]: > 10 µM
IC50 [2]: > 10 µM
IC50 [3]: > 10 µM
IC50 [4]: > 10 µM
IC50 [5]: > 10 µM
IC50 [6]: > 10 µM
IC50 [7]: > 10 µM
IC50 [8]: > 10 µM
IC50 [9]: > 10 µM
IC50 [10]: > 10 µM
IC50 [11]: > 10 µM
IC50 [12]: > 10 µM
IC50 [13]: > 10 µM
IC50 [14]: > 10 µM
IC50 [15]: > 10 µM
IC50 [16]: > 10 µM
IC50 [17]: > 10 µM
IC50 [18]: > 10 µM
IC50 [19]: > 10 µM
IC50 [20]: > 10 µM
IC50 [21]: > 10 µM
IC50 [22]: > 10 µM
IC50 [23]: > 10 µM
IC50 [24]: > 10 µM
IC50 [25]: > 10 µM
IC50 [26]: > 10 µM
IC50 [27]: > 10 µM
IC50 [28]: > 10 µM
IC50 [29]: > 10 µM
IC50 [30]: > 10 µM
IC50 [31]: > 10 µM
IC50 [32]: > 10 µM
IC50 [33]: > 10 µM
IC50 [34]: > 10 µM
IC50 [35]: > 10 µM
IC50 [36]: > 10 µM
IC50 [37]: > 10 µM
IC50 [38]: > 10 µM
IC50 [39]: > 10 µM
IC50 [40]: > 10 µM
IC50 [41]: > 10 µM
IC50 [42]: > 10 µM
IC50 [43]: > 10 µM
IC50 [44]: > 10 µM
IC50 [45]: > 10 µM
IC50 [46]: > 10 µM
IC50 [47]: > 10 µM
IC50 [48]: > 10 µM
IC50 [49]: > 10 µM
IC50 [50]: > 10 µM
IC50 [51]: > 10 µM
IC50 [52]: > 10 µM
IC50 [53]: > 10 µM

COc1cc(F)c(F)c(Nc2ccc(I)cc2F)c1NS(=O)(=O)C1(CC(O)CO)CC1 (stereo not given)
IC50 [1]: 1.78 µM
IC50 [2]: 2.92 µM
IC50 [3]: > 5 µM
IC50 [4]: 1.02 µM
IC50 [5]: > 5 µM
IC50 [6]: > 5 µM
IC50 [7]: 2.42 µM
IC50 [8]: 0.198 µM
IC50 [9]: 3.57 µM
IC50 [10]: > 5 µM
IC50 [11]: > 5 µM
IC50 [12]: > 5 µM
IC50 [13]: 0.366 µM
IC50 [14]: > 5 µM
IC50 [15]: > 5 µM
IC50 [16]: > 5 µM
IC50 [17]: > 5 µM
IC50 [18]: > 5 µM
IC50 [19]: > 5 µM
IC50 [20]: 0.5 µM
IC50 [21]: > 5 µM
IC50 [22]: > 5 µM
IC50 [23]: > 5 µM
IC50 [24]: > 5 µM
IC50 [25]: 0.12 µM
IC50 [26]: 0.657 µM
IC50 [27]: > 5 µM
IC50 [28]: 0.981 µM
IC50 [29]: > 5 µM
IC50 [30]: 0.318 µM
IC50 [31]: 1.33 µM
IC50 [32]: > 5 µM
IC50 [33]: > 5 µM
IC50 [34]: > 5 µM
IC50 [35]: > 5 µM
IC50 [36]: > 5 µM
IC50 [37]: > 5 µM
IC50 [38]: 0.279 µM
IC50 [39]: 2.11 µM
IC50 [40]: > 5 µM
IC50 [41]: 0.0775 µM
IC50 [42]: > 5 µM
IC50 [43]: > 5 µM
IC50 [44]: 2.05 µM
IC50 [45]: > 5 µM
IC50 [46]: > 5 µM
IC50 [47]: 2.96 µM
IC50 [48]: > 5 µM
IC50 [49]: 0.24 µM
IC50 [50]: > 5 µM
IC50 [51]: 0.403 µM
IC50 [52]: 0.414 µM
IC50 [53]: > 5 µM

O=c1cc(-c2cccc3c2Sc2ccccc2S3)oc(N2CCOCC2)c1 [KU-55933]
IC50 [1]: > 10 µM
IC50 [2]: > 10 µM
IC50 [3]: > 10 µM
IC50 [4]: > 10 µM
IC50 [5]: > 10 µM
IC50 [6]: > 10 µM
IC50 [7]: > 10 µM
IC50 [8]: > 10 µM
IC50 [9]: > 10 µM
IC50 [10]: > 10 µM
IC50 [11]: > 10 µM
IC50 [12]: > 10 µM
IC50 [13]: > 10 µM
IC50 [14]: > 10 µM
IC50 [15]: > 10 µM
IC50 [16]: > 10 µM
IC50 [17]: > 10 µM
IC50 [18]: > 10 µM
IC50 [19]: > 10 µM
IC50 [20]: > 10 µM
IC50 [21]: > 10 µM
IC50 [22]: > 10 µM
IC50 [23]: > 10 µM
IC50 [24]: > 10 µM
IC50 [25]: > 10 µM
IC50 [26]: > 10 µM
IC50 [27]: > 10 µM
IC50 [28]: > 10 µM
IC50 [29]: > 10 µM
IC50 [30]: 4.58 µM
IC50 [31]: > 10 µM
IC50 [32]: > 10 µM
IC50 [33]: > 10 µM
IC50 [34]: > 10 µM
IC50 [35]: > 10 µM
IC50 [36]: > 10 µM
IC50 [37]: > 10 µM
IC50 [38]: > 10 µM
IC50 [39]: > 10 µM
IC50 [41]: > 10 µM
IC50 [42]: 8.28 µM
IC50 [43]: > 10 µM
IC50 [44]: > 10 µM
IC50 [45]: > 10 µM
IC50 [47]: > 10 µM
IC50 [48]: > 10 µM
IC50 [49]: > 10 µM
IC50 [50]: > 10 µM
IC50 [51]: > 10 µM
IC50 [52]: > 10 µM
IC50 [53]: > 10 µM
